Measured values reported in the NIST ThermoML archive (doi:10.1021/je060415l).

Details: Liquid, expansion method

CO [methanol]
Details	isothermal compressibility
208.17 K, 390 kPa	7.15e-07 1/kPa
208.17 K, 2110 kPa	6.78e-07 1/kPa
208.17 K, 5020 kPa	6.63e-07 1/kPa
208.17 K, 7970 kPa	6.47e-07 1/kPa
208.17 K, 10910 kPa	6.37e-07 1/kPa
208.17 K, 13880 kPa	6.24e-07 1/kPa
208.17 K, 16980 kPa	6.12e-07 1/kPa
208.17 K, 20090 kPa	6.02e-07 1/kPa
208.17 K, 23230 kPa	5.9e-07 1/kPa
208.17 K, 30160 kPa	5.68e-07 1/kPa
208.17 K, 33540 kPa	5.57e-07 1/kPa
208.17 K, 37190 kPa	5.46e-07 1/kPa
208.17 K, 41120 kPa	5.34e-07 1/kPa
208.17 K, 45130 kPa	5.26e-07 1/kPa
208.17 K, 49210 kPa	5.15e-07 1/kPa
208.17 K, 53370 kPa	5.04e-07 1/kPa
208.17 K, 57610 kPa	4.95e-07 1/kPa
208.17 K, 61920 kPa	4.85e-07 1/kPa
208.17 K, 66300 kPa	4.78e-07 1/kPa
208.17 K, 70740 kPa	4.7e-07 1/kPa
208.17 K, 75250 kPa	4.6e-07 1/kPa
208.17 K, 79850 kPa	4.53e-07 1/kPa
208.17 K, 84300 kPa	4.48e-07 1/kPa
208.17 K, 88600 kPa	4.41e-07 1/kPa
208.17 K, 92960 kPa	4.35e-07 1/kPa
208.17 K, 97910 kPa	4.18e-07 1/kPa
223.17 K, 1060 kPa	7.59e-07 1/kPa
223.17 K, 3160 kPa	7.44e-07 1/kPa
223.17 K, 5540 kPa	7.28e-07 1/kPa
223.17 K, 8010 kPa	7.14e-07 1/kPa
223.17 K, 10640 kPa	7.01e-07 1/kPa
223.17 K, 13500 kPa	6.84e-07 1/kPa
223.17 K, 16660 kPa	6.62e-07 1/kPa
223.17 K, 19820 kPa	6.59e-07 1/kPa
223.17 K, 22850 kPa	6.45e-07 1/kPa
223.17 K, 25930 kPa	6.33e-07 1/kPa
223.17 K, 29040 kPa	6.2e-07 1/kPa
223.17 K, 32210 kPa	6.08e-07 1/kPa
223.17 K, 35450 kPa	5.98e-07 1/kPa
223.17 K, 38770 kPa	5.87e-07 1/kPa
223.17 K, 42230 kPa	5.74e-07 1/kPa
223.17 K, 45780 kPa	5.66e-07 1/kPa
223.17 K, 49400 kPa	5.55e-07 1/kPa
223.17 K, 53080 kPa	5.45e-07 1/kPa
223.17 K, 56960 kPa	5.3e-07 1/kPa
223.17 K, 61040 kPa	5.23e-07 1/kPa
223.17 K, 65060 kPa	5.15e-07 1/kPa
223.17 K, 69050 kPa	5.06e-07 1/kPa
223.17 K, 73000 kPa	4.98e-07 1/kPa
223.17 K, 76980 kPa	4.9e-07 1/kPa
223.17 K, 81110 kPa	4.82e-07 1/kPa
223.17 K, 85330 kPa	4.72e-07 1/kPa
223.17 K, 89630 kPa	4.66e-07 1/kPa
223.17 K, 94200 kPa	4.54e-07 1/kPa
223.17 K, 98850 kPa	4.51e-07 1/kPa
248.19 K, 1680 kPa	8.6e-07 1/kPa
248.19 K, 4590 kPa	8.53e-07 1/kPa
248.19 K, 7250 kPa	8.36e-07 1/kPa
248.19 K, 9880 kPa	8.18e-07 1/kPa
248.19 K, 12580 kPa	8.01e-07 1/kPa
248.19 K, 15470 kPa	7.74e-07 1/kPa
248.19 K, 18450 kPa	7.62e-07 1/kPa
248.19 K, 21360 kPa	7.48e-07 1/kPa
248.19 K, 24330 kPa	7.3e-07 1/kPa
248.19 K, 27310 kPa	7.19e-07 1/kPa
248.19 K, 30180 kPa	7.07e-07 1/kPa
248.19 K, 33000 kPa	6.92e-07 1/kPa
248.19 K, 35670 kPa	6.84e-07 1/kPa
248.19 K, 38600 kPa	6.64e-07 1/kPa
248.19 K, 41780 kPa	6.56e-07 1/kPa
248.19 K, 44760 kPa	6.45e-07 1/kPa
248.19 K, 47880 kPa	6.33e-07 1/kPa
248.19 K, 51230 kPa	6.19e-07 1/kPa
248.19 K, 54640 kPa	6.09e-07 1/kPa
248.19 K, 57930 kPa	5.99e-07 1/kPa
248.19 K, 61270 kPa	5.85e-07 1/kPa
248.19 K, 64800 kPa	5.75e-07 1/kPa
248.19 K, 68310 kPa	5.66e-07 1/kPa
248.19 K, 71740 kPa	5.57e-07 1/kPa
248.19 K, 75070 kPa	5.49e-07 1/kPa
248.19 K, 78410 kPa	5.41e-07 1/kPa
248.19 K, 81890 kPa	5.31e-07 1/kPa
248.19 K, 85380 kPa	5.25e-07 1/kPa
248.19 K, 88990 kPa	5.18e-07 1/kPa
248.19 K, 92540 kPa	5.18e-07 1/kPa
248.19 K, 96400 kPa	5e-07 1/kPa
248.19 K, 100840 kPa	4.9e-07 1/kPa
263.17 K, 1420 kPa	9.64e-07 1/kPa
263.17 K, 3920 kPa	9.42e-07 1/kPa
263.17 K, 6360 kPa	9.2e-07 1/kPa
263.17 K, 8840 kPa	9.02e-07 1/kPa
263.17 K, 11360 kPa	8.82e-07 1/kPa
263.17 K, 13920 kPa	8.62e-07 1/kPa
263.17 K, 16580 kPa	8.42e-07 1/kPa
263.17 K, 19270 kPa	8.26e-07 1/kPa
263.17 K, 22000 kPa	8.07e-07 1/kPa
263.17 K, 24860 kPa	7.88e-07 1/kPa
263.17 K, 27740 kPa	7.73e-07 1/kPa
263.17 K, 30600 kPa	7.56e-07 1/kPa
263.17 K, 33550 kPa	7.41e-07 1/kPa
263.17 K, 36560 kPa	7.26e-07 1/kPa
263.17 K, 39590 kPa	7.11e-07 1/kPa
263.17 K, 42670 kPa	6.97e-07 1/kPa
263.17 K, 45790 kPa	6.84e-07 1/kPa
263.17 K, 48960 kPa	6.72e-07 1/kPa
263.17 K, 52170 kPa	6.58e-07 1/kPa
263.17 K, 55430 kPa	6.46e-07 1/kPa
263.17 K, 58830 kPa	6.32e-07 1/kPa
263.17 K, 62280 kPa	6.21e-07 1/kPa
263.17 K, 65720 kPa	6.12e-07 1/kPa
263.17 K, 69340 kPa	5.97e-07 1/kPa
263.17 K, 73030 kPa	5.88e-07 1/kPa
263.17 K, 76640 kPa	5.78e-07 1/kPa
263.17 K, 80310 kPa	5.68e-07 1/kPa
263.17 K, 84120 kPa	5.57e-07 1/kPa
263.17 K, 88070 kPa	5.47e-07 1/kPa
263.17 K, 92050 kPa	5.52e-07 1/kPa
263.17 K, 95980 kPa	5.33e-07 1/kPa
263.17 K, 100060 kPa	5.22e-07 1/kPa
273.17 K, 1010 kPa	1.05e-06 1/kPa
273.17 K, 3000 kPa	1.02e-06 1/kPa
273.17 K, 5050 kPa	1e-06 1/kPa
273.17 K, 7100 kPa	9.82e-07 1/kPa
273.17 K, 9170 kPa	9.62e-07 1/kPa
273.17 K, 11220 kPa	9.47e-07 1/kPa
273.17 K, 13320 kPa	9.25e-07 1/kPa
273.17 K, 15430 kPa	9.12e-07 1/kPa
273.17 K, 17510 kPa	8.9e-07 1/kPa
273.17 K, 19750 kPa	8.72e-07 1/kPa
273.17 K, 22140 kPa	8.56e-07 1/kPa
273.17 K, 24880 kPa	8.26e-07 1/kPa
273.17 K, 27900 kPa	8.1e-07 1/kPa
273.17 K, 30870 kPa	7.91e-07 1/kPa
273.17 K, 38720 kPa	7.29e-07 1/kPa
273.17 K, 42290 kPa	7.21e-07 1/kPa
273.17 K, 45710 kPa	7.11e-07 1/kPa
273.17 K, 49180 kPa	6.92e-07 1/kPa
273.17 K, 52690 kPa	6.79e-07 1/kPa
273.17 K, 55980 kPa	6.73e-07 1/kPa
273.17 K, 59210 kPa	6.57e-07 1/kPa
273.17 K, 62510 kPa	6.46e-07 1/kPa
273.17 K, 65790 kPa	6.35e-07 1/kPa
273.17 K, 69160 kPa	6.24e-07 1/kPa
273.17 K, 72680 kPa	6.19e-07 1/kPa
273.17 K, 76170 kPa	6.02e-07 1/kPa
273.17 K, 79630 kPa	5.9e-07 1/kPa
273.17 K, 83150 kPa	5.82e-07 1/kPa
273.17 K, 86550 kPa	5.73e-07 1/kPa
273.17 K, 90030 kPa	5.63e-07 1/kPa
273.17 K, 94000 kPa	5.47e-07 1/kPa
273.17 K, 98210 kPa	5.44e-07 1/kPa
298.16 K, 740 kPa	1.27e-06 1/kPa
298.16 K, 2360 kPa	1.22e-06 1/kPa
298.16 K, 4230 kPa	1.19e-06 1/kPa
298.16 K, 6090 kPa	1.17e-06 1/kPa
298.16 K, 7970 kPa	1.14e-06 1/kPa
298.16 K, 9920 kPa	1.12e-06 1/kPa
298.16 K, 11950 kPa	1.09e-06 1/kPa
298.16 K, 14020 kPa	1.06e-06 1/kPa
298.16 K, 16080 kPa	1.04e-06 1/kPa
298.16 K, 18190 kPa	1.02e-06 1/kPa
298.16 K, 20320 kPa	1e-06 1/kPa
298.16 K, 22490 kPa	9.82e-07 1/kPa
298.16 K, 24710 kPa	9.59e-07 1/kPa
298.16 K, 26990 kPa	9.37e-07 1/kPa
298.16 K, 29290 kPa	9.23e-07 1/kPa
298.16 K, 31700 kPa	8.99e-07 1/kPa
298.16 K, 34090 kPa	8.85e-07 1/kPa
298.16 K, 36550 kPa	8.65e-07 1/kPa
298.16 K, 39120 kPa	8.47e-07 1/kPa
298.16 K, 41740 kPa	8.3e-07 1/kPa
298.16 K, 44450 kPa	8.14e-07 1/kPa
298.16 K, 47180 kPa	7.96e-07 1/kPa
298.16 K, 49870 kPa	7.83e-07 1/kPa
298.16 K, 52590 kPa	7.68e-07 1/kPa
298.16 K, 55320 kPa	7.57e-07 1/kPa
298.16 K, 58040 kPa	7.43e-07 1/kPa
298.16 K, 60870 kPa	7.28e-07 1/kPa
298.16 K, 63900 kPa	7.14e-07 1/kPa
298.16 K, 66990 kPa	7.03e-07 1/kPa
298.16 K, 69960 kPa	6.89e-07 1/kPa
298.16 K, 73410 kPa	6.65e-07 1/kPa
298.16 K, 77320 kPa	6.55e-07 1/kPa
298.16 K, 80990 kPa	6.49e-07 1/kPa
298.16 K, 84450 kPa	6.37e-07 1/kPa
298.16 K, 87890 kPa	6.41e-07 1/kPa
298.16 K, 91290 kPa	6.17e-07 1/kPa
298.16 K, 94830 kPa	6.05e-07 1/kPa
298.16 K, 98440 kPa	6.02e-07 1/kPa
